One data set has as its target T1, FKBPwt (Homo sapiens, UniProt P62942).
T1 construct: made in house
Put plainly: Competitive fluorescence polarization (FP) binding assay of rapalogs to FKBP. To be noted: for fold loss in affinity (cf rapamycin): =IC50/IC50 of rapamycin; for IC50: read-out: FKBPwt FP binding assay IC50. For orientation: Polarisation of emitted light reports the rotation of a fluorescent probe.

The subject of data set [1] is HT1080 cells expressing M30 / M31 (FRAP-FKBP-Fas) constructs. The experiment in a line: Rapamycin-regulated apoptosis of stably transfected HT1080 cells. The class given is cell-based, human. Particulars: with 50 ng/ml actinomycin D, about 20 hours, alamar blue. An excerpt: (f) Rapamycin-regulated apoptosis of stable transsfected human HT1080 cells in culture XbaI-BamHI fragments from constructs A30 and A31 (d, table 1) were cloned into pCM to generate M30 and M31, constructs that direct the expression of MT5FasSE and MT6FasSE, where M denotes a myristoylation domain (see this example sections A.1. and A.8.) and other abbreviations are as described in d, table 1. EcoRI-BamHI fragments containing these expression cassettes were then cloned into the retroviral vector pSMN3 (Example 7). […] HT1080 cells were infected with viral stock and selected with G418.
The media was removed and replaced with 100 μl of media containing 10% alamar blue dye. Plates were incubated as before, and the extent of cell viability assessed periodically by spectrophotometric determination of OD at 570 nm and 600 nm on a microtiter plate reader. Typically reading was continued until control (untreated) wells are at OD 0.2-0.4 after subtraction of blank.
For orientation: Alamar Blue is a resazurin reagent that responds to reducing activity.

Data set [2] in a line: Rapamycin pharmacokinetics in mice. The class given is in vivo.
Data set [3] has as its system transfected HT1080 cells (hGH target gene) transplanted into nu/nu mice. The experiment in a line: Rapamycin-dependent production of hGH in mice. The class given is in vivo. An excerpt: In Vivo Methods: Animals, husbandry, and general procedures. Male nu/nu mice were obtained from Charles River Laboratories (Wilmington, Mass.) and allowed to acclimate for five days prior to experimentation. They were housed under sterile conditions, were allowed free access to sterile food and sterile water throughout the entire experiment, and were handled with sterile techniques throughout.
To transplant transiently transfected cells into mice, 2×10^6 transfected HT1080 cells, were suspended in […] PBS/0.1% BSA/0.1% glucose buffer, and administered into four intramuscular sites (approximately […] per site) on the haunches and flanks of the animals. Control mice received equivalent volume injections of buffer alone.
The accuracy of the dosing solutions was confirmed by HPLC analysis prior to intravenous administration into the tail veins. […] In addition, other control mice, bearing transfected cells, received only the rapamycin vehicle.
Blood was collected by either anesthetizing or sacrificing mice via CO2 inhalation. Anesthetized mice were used to collect […] of blood by cardiac puncture. The mice were revived and allowed to recover for subsequent blood collections. Sacrificed mice were immediately exsanguinated. Blood samples were allowed to clot for 24 hours, at 4° C., and sera were collected following centrifugation at 1000×g for 15 minutes. Serum hGH was measured by the Boehringer Mannheim non-isotopic sandwich ELISA (Cat No. 1 585 878). […] Recommended assay instructions were followed.
Mice were administered transfected HT1080 cells as described above. […] The four remaining doses were given under anesthesia, immediately subsequent to blood collection, at 16, 32, 48, and 64 hours. […] Experimental animals and their control counterparts were each assigned to one of two groups. Each of the two experimental groups and two control groups received identical drug or vehicle treatments, respectively. The groups differed in that blood collection times were alternated between the two groups to reduce the frequency of blood collection for each animal.

Read-outs that look alike come from different tables or passages of the source.

T1 sequence (P62942 whole entry): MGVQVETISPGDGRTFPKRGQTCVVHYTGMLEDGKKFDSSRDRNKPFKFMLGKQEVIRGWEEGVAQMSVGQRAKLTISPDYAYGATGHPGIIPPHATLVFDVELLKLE
Description for FKBPwt: Serial 10-fold dilutions of each analog were prepared in 100% ethanol in glass vials and stored on ice. All other manipulations were performed at room temperature. […] Finally, a probe solution was prepared containing 10 nM AP1491 in 0.1% ethanol/FP buffer, and 100 μl added to each well with mixing.
The plates were stored covered in the dark for approximately 30 min to permit equilibration and then the fluorescence polarization of the sample in each well read on a Jolley FPM-2 FP plate reader (Jolley Consulting and Research, Inc., Grayslake, Ill.) in accordance with the manufacturer's recommendations. The mean polarization (mP units)
for each competitor concentration was usually converted to % total binding by reference to the control values and plotted (y) vs. log molar final concentration of competitor (x). Non-linear least square analysis was used to fit the curve and extract the IC50 using the following equation:
y=M1+(M4−M1)/(1+exp(M2*(M3−x)))
where M3 is the IC50. For incomplete curves the IC50 was determined by interpolation.

The IC50 is the concentration that inhibits the measured activity by half. Take `CCc1ccc([C@@H]2C[C@@H]3CC[C@@H](C)[C@@](O)(O3)C(=O)C(=O)N3CCCC[C@H]3C(=O)O[C@H]([C@H](C)C[C@@H]3CC[C@@H](O)[C@H](OC)C3)CC(=O)[C@H](C)/C=C(\C)[C@@H](O)[C@@H](OC)C(=O)[C@H](C)C[C@H](C)/C=C/C=C/C=C/2C)s1` [Compound 39]: at FKBPwt (C7 rapalogs), the “fold loss in affinity (cf rapamycin)” value stood at 1.0 and the 50% inhibitory concentration (IC50) came to 2.4 nM.

On to `CO[C@@H]1C[C@H](C[C@@H](C)[C@@H]2CC(=O)[C@H](C)/C=C(\C)[C@@H](O)[C@@H](OC)C(=O)[C@H](C)C[C@H](C)/C=C/C=C/C=C(\C)[C@H](c3ccc(C(C)(C)C)s3)C[C@@H]3CC[C@@H](C)[C@@](O)(O3)C(=O)C(=O)N3CCCC[C@H]3C(=O)O2)CC[C@H]1O` [Compound 40], for which, on FKBPwt (C7 rapalogs), the “fold loss in affinity (cf rapamycin)” value stood at 1.5 and the IC50 was 3.4 nM.

Consider `CO[C@@H]1C[C@H](C[C@@H](C)[C@@H]2CC(=O)[C@H](C)/C=C(\C)[C@@H](O)[C@@H](OC)C(=O)[C@H](C)C[C@H](C)/C=C/C=C/C=C(\C)[C@@H](c3ccc(C(C)(C)C)s3)C[C@@H]3CC[C@@H](C)[C@@](O)(O3)C(=O)C(=O)N3CCCC[C@H]3C(=O)O2)CC[C@H]1O` [Compound 41], for which, on FKBPwt (C7 rapalogs), the “fold loss in affinity (cf rapamycin)” value amounted to 1.3 and the half-inhibitory concentration (IC50) amounted to 2.9 nM.

Consider `CO[C@@H]1C[C@H](C[C@@H](C)[C@@H]2CC(=O)[C@H](C)/C=C(\C)[C@@H](O)[C@@H](OC)C(=O)[C@H](C)C[C@H](C)/C=C/C=C/C=C(\C)[C@@H](c3c[nH]c4ccccc34)C[C@@H]3CC[C@@H](C)[C@@](O)(O3)C(=O)C(=O)N3CCCC[C@H]3C(=O)O2)CC[C@H]1O` [Compound 44], for which, on FKBPwt (C7 rapalogs), the “fold loss in affinity (cf rapamycin)” value was found to be 3.3 and the IC50 amounted to 7.8 nM.

In the case of `CO[C@@H]1C[C@H](C[C@@H](C)[C@@H]2CC(=O)[C@H](C)/C=C(\C)[C@@H](O)[C@@H](OC)C(=O)[C@H](C)C[C@H](C)/C=C/C=C/C=C(\C)[C@H](c3c[nH]c4ccccc34)C[C@@H]3CC[C@@H](C)[C@@](O)(O3)C(=O)C(=O)N3CCCC[C@H]3C(=O)O2)CC[C@H]1O` [Compound 45], on FKBPwt (C7 rapalogs), the “fold loss in affinity (cf rapamycin)” value is given as 2.6 and the IC50 is 5.9 nM.

For orientation: half-life means the time in which the quantity being followed falls by half. Low values mean rapid decline, high ones slow decline. On to `CO[C@H]1C[C@@H]2CC[C@@H](C)[C@@](O)(O2)C(=O)C(=O)N2CCCC[C@H]2C(=O)O[C@H]([C@H](C)C[C@@H]2CC[C@@H](O)[C@H](OC)C2)CC(=O)[C@H](C)/C=C(\C)[C@@H](O)[C@@H](OC)C(=O)[C@H](C)C[C@H](C)/C=C/C=C/C=C/1C` [rapamycin, Rapamycin], for which the “survival of stably transfected cells” value in data set [1] is reported as “potently reduced”. In addition, the “predicted steady-state trough concentration of rapamycin” value in data set [2] (10.0 mg/kg at 16-hour intervals, after two doses) is 1.7 µg/mL. This molecule also had a half-life in data set [2] (nu/nu, mouse, in vivo, mice, intravenous) of 4.6 h. Moreover, the “production of hGH in mice” value in data set [3] (0.01-10.0 mg/kg intravenous, serum 17 hours after dosing) is given as “dose-responsive production of hGH”. Moreover, in data set [3] (single 10.0 mg/kg dose), the “time after treatment at which serum hGH remained detectable” value was 42 h, the “time at which serum hGH was observed” value is reported as “within four hours” and the “time of peak serum hGH” value was “eight hours”. Moreover, in data set [3] (single 10.0 mg/kg dose, eight hours), the “peak serum hGH level” value is recorded as “over one hundred times the sensitivity limit of the hGH ELISA”.

For the molecule “apamycin (E and Z)-24-(O-benzyloxime) [Compound 11]”, at FKBPwt, the “fold loss in affinity (vs rapamycin)” value is reported as 3627 and the IC50 came to 8340 nM.

The record behind these values is US6649595B2, “Regulation of biological events using novel compounds” (ARIAD Gene Therapeutics, Inc., priority 1995, dated 2003).
